This note sets out measurements from EP4755886A1 (Chengdu Chipscreen Pharmaceutical Ltd., priority 2023, dated 2025).

Experiment [1] relates to wild-type HCT-116 cells. The experiment is described as follows: Cell proliferation (MTS), wild-type HCT-116. The note with it: Homo sapiens, 240 h; wild-type HCT-116, 10 days with compound, MTS reading; read-out: IC50 HCT116 WT. Type of experiment: cell-based. A digest of the protocol: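 Wild-type HCT-116 cells were seeded at 100 cells/well in McCoy's 5A/10% FBS. From day 1 they were treated with compound in 3-fold dilutions (initial 20 µM, 8 points) for 10 days at 37° C. Proliferation was read by MTS on day 11, and IC50 was obtained from a four-parameter logistic fit.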

In experiment [2] the test system is MTAP^-/- HCT-116 cells. The experiment is described as follows: Cell proliferation (MTS), MTAP-/- HCT-116. To be noted: for Selectivity: HCT116 WT IC50 relative to HCT116 MTAP-/- IC50; for IC50: Homo sapiens, 240 h, MTAP-/- HCT-116, 10 days with compound, MTS reading, read-out: IC50 HCT116 MTAP-/-. Type of experiment: cell-based, human. Put shortly:
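MTAP-/- (CRISPR/Cas9 biallelic knockout) or wild-type HCT-116 cells seeded at 100 cells/well, treated next day with 8-point 3-fold dilutions (top 20 µM) for 10 days at 37 °C, 5% CO2. Viability read by MTS; IC50 from four-parameter logistic fit of inhibition rate vs log concentration.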

For the compound `CN(C(=O)c1cc2c3c(c(N)nc2cc1Cl)COC3)[C@@H]1COc2cc(C#Cc3ccnn3C)ccc21` [Compound 78A, (S)-4-amino-7-chloro-N-methyl-N-(6-((1-methyl-1H-pyrazol-5-yl)ethynyl)-2,3-dihydrobenzofuran-3-yl)-1,3-dihydrofuro[3,4-c]quinoline-8-carboxamide], the IC50 in experiment [1] was 0.512 µM. For the same compound, in experiment [2], the Selectivity came to 131 and the IC50 came to 0.0039 µM.

Take `CN(C(=O)c1cc2c(cc1F)nc(N)c1cnn(C)c12)[C@@H]1COc2cc(C#Cc3ccn(C)n3)ccc21` [Compound 21A, (S)-4-amino-7-fluoro-N,1-dimethyl-N-(6-((1-methyl-1H-pyrazol-3-yl)ethynyl)-2,3-dihydrobenzofuran-3-yl)-1H-pyrazolo[4,3-c]quinoline-8-carboxamide]: the IC50 in experiment [1] was found to be 0.233 µM. In experiment [2], the Selectivity turned out to be 86.3 and the IC50 turned out to be 0.0027 µM.

Regarding `CN1CC=C(C#Cc2ccc3c(c2)OCC3N(C)C(=O)c2ccc3nc(N)c4cnn(C)c4c3c2)CC1` (stereo not drawn) [Compound 6, 4-amino-N,1-dimethyl-N-(6-((1-methyl-1,2,3,6-tetrahydropyridin-4-yl)ethynyl)-2,3-dihydrobenzofuran-3-yl)-1H-pyrazolo[4,3-c]quinoline-8-carboxamide], the IC50 in experiment [1] was found to be 2.78 µM. In experiment [2], the Selectivity came out at 257 and the IC50 was determined as 0.0108 µM.

For the compound `CN(C(=O)c1ccc2nc(N)c3cnn(C)c3c2c1)C1COc2cc(C#Cc3cnn(C)c3)ccc21` (stereo not drawn) [Compound 1, 4-amino-N,1-dimethyl-N-(6-((1-methyl-1H-pyrazol-4-yl)ethynyl)-2,3-dihydrobenzofuran-3-yl)-1H-pyrazolo[4,3-c]quinoline-8-carboxamide], in experiment [1], the IC50 is 1.8 µM. Further, in experiment [2], the Selectivity was 140 and the IC50 amounted to 0.0129 µM.

As to `CC(C)n1cc(C#Cc2ccc3c(c2)OCC3N(C)C(=O)c2ccc3nc(N)c4cnn(C)c4c3c2)cn1` (stereo not drawn) [Compound 19, 4-amino-N-(6-((1-isopropyl-1H-pyrazol-4-yl)ethynyl)-2,3-dihydrobenzofuran-3-yl)-N,1-dimethyl-1H-pyrazolo[4,3-c]quinoline-8-carboxamide], the IC50 in experiment [1] came to 0.986 µM; in experiment [2] it was 0.0097 µM. Further, the Selectivity in experiment [2] was 102.

For the compound `CN(C(=O)c1cc2c(cc1Cl)nc(N)c1cnn(C)c12)C1COc2cc(C#Cc3ccn(C)n3)ccc21` (stereo not drawn) [Compound 18, 4-amino-7-chloro-N,1-dimethyl-N-(6-((1-methyl-1H-pyrazol-3-yl)ethynyl)-2,3-dihydrobenzofuran-3-yl)-1H-pyrazolo[4,3-c]quinoline-8-carboxamide], the IC50 in experiment [1] was 0.159 µM. Besides, in experiment [2], the Selectivity worked out at 53 and the IC50 is 0.003 µM.

`CN(C(=O)c1cc2c(cc1F)nc(N)c1cnn(C)c12)C1COCc2cc(C#Cc3cnn(C4CC4)c3)ccc21` (stereo not drawn) [Compound 85, 4-amino-N-(7-((1-cyclopropyl-1H-pyrazol-4-yl)ethynyl)isochroman-4-yl)-7-fluoro -N,1-dimethyl-1H-pyrazolo[4,3-c]quinoline-8-carboxamide]: the IC50 in experiment [1] was determined as 0.165 µM; in experiment [2] it was 0.003 µM. For the same compound, the Selectivity in experiment [2] was found to be 55.

`Cc1ccc(C#Cc2ccc3c(c2)OC[C@H]3N(C)C(=O)c2cc3c4c(c(N)nc3cc2Cl)COC4)cn1` [Compound 58A, (S)-4-amino-7-chloro-N-methyl-N-(6-((6-methylpyridin-3-yl)ethynyl)-2,3-dihydrobenzofuran-3-yl)-1,3-dihydrofuro[3,4-c]quinoline-8-carboxamide]: the IC50 in experiment [1] turned out to be 2.22 µM. In experiment [2], the Selectivity came out at 234 and the IC50 came to 0.0095 µM.

In the case of `Cc1c(C#Cc2ccc3c(c2)OCC3N(C)C(=O)c2ccc3nc(N)c4cnn(C)c4c3c2)cnn1C` (stereo not drawn) [Compound 29, 4-amino-N-(6-((1,5-dimethyl-1H-pyrazol-4-yl)ethynyl)-2,3-dihydrobenzofuran-3-yl)-N,1-dimethyl-1H-pyrazolo[4,3-c]quinoline-8-carboxamide], the IC50 in experiment [1] turned out to be 1.5 µM. Besides, in experiment [2], the Selectivity is 153 and the IC50 came out at 0.0098 µM.

Regarding `Cc1cn(C)nc1C#Cc1ccc2c(c1)OC[C@H]2N(C)C(=O)c1cc2c(cc1Cl)nc(N)c1cnn(C)c12` [Compound 81A, (S)-4-amino-7-chloro-N-(6-((1,4-dimethyl-1H-pyrazol-3-yl)ethynyl)-2,3-dihydrobenzofuran-3-yl)-N,1-dimethyl-1H-pyrazolo[4,3-c]quinoline-8-carboxamide], the IC50 in experiment [1] was 0.122 µM. Moreover, in experiment [2], the Selectivity was determined as 45 and the IC50 stood at 0.0027 µM.

As for `CN(C(=O)c1cc2c3c(c(N)nc2cc1Cl)COC3)[C@@H]1COc2cc(C#Cc3cnc4cnn(C)c4c3)ccc21` [Compound 76A, (S)-4-amino-7-chloro-N-methyl-N-(6-((1-methyl-1H-pyrazolo[4,3-b]pyridin-6-yl)ethynyl)-2,3-dihydrobenzofuran-3-yl)-1,3-dihydrofuro[3,4-c]quinoline-8-carboxamide], the values for the IC50 in experiment [1] and in experiment [2] were 0.167 µM and 0.003 µM, respectively. Further, the Selectivity in experiment [2] is listed as 56.

On to `CN(C(=O)c1ccc2nc(N)c3c(c2c1)COC3)C1COc2cc(C#Cc3cnn(C)c3)ccc21` (racemic) [Compound 3, 4-amino-N-methyl-N-(6-((1-methyl-1H-pyrazol-4-yl)ethynyl)-2,3-dihydrobenzofuran-3-yl)-1,3-dihydrofuran[3,4-c]quinoline-8-carboxamide], for which the IC50 in experiment [1] amounted to 4.31 µM. In addition, in experiment [2], the Selectivity is 160 and the IC50 worked out at 0.027 µM.

Take `CN(C(=O)c1cc2c(cc1F)nc(N)c1cnn(C)c12)C1COc2cc(C#Cc3ccnn3C)ccc21` (stereo not drawn) [Compound 36, 4-amino-7-fluoro-N,1-dimethyl-N-(6-((1-methyl-1H-pyrazol-5-yl)ethynyl)-2,3-dihydrobenzofuran-3-yl)-1H-pyrazolo[4,3-c]quinoline-8-carboxamide]: the IC50 came to 1.73 µM in experiment [1] and 0.0137 µM in experiment [2]. In addition, the Selectivity in experiment [2] was 126.

For `CCn1cc(C#Cc2ccc3c(c2)OCC3N(C)C(=O)c2ccc3nc(N)c4cnn(C)c4c3c2)cn1` (stereo not drawn) [Compound 20, 4-amino-N-(6-((1-ethyl-1H-pyrazol-4-yl)ethynyl)-2,3-dihydrobenzofuran-3-yl)-N, 1-dimethyl-1H-pyrazolo[4,3-c]quinoline-8-carboxamide], in experiment [1], the IC50 turned out to be 0.948 µM. Also, in experiment [2], the Selectivity was 97 and the IC50 was found to be 0.0098 µM.

With `CN(C(=O)c1ccc2nc(N)c3cnn(C)c3c2c1)[C@@H]1COc2cc(C#Cc3cn(C)nc3Cl)ccc21` [Compound 34A, (S)-4-amino-N-(6-((3-chloro-1-methyl-1H-pyrazol-4-yl)ethynyl)-2,3-dihydrobenzofuran-3-yl)-N,1-dimethyl-1H-pyrazolo[4,3-c]quinoline-8-carboxamide], the IC50 in experiment [1] stood at 0.266 µM. For the same compound, in experiment [2], the Selectivity came to 133 and the IC50 came out at 0.002 µM.

With `CN(C(=O)c1cc2c(cc1F)nc(N)c1cnn(C)c12)C1COc2nc(C#Cc3cnn(C)c3)ccc21` (stereo not drawn) [Compound 33, 4-amino-7-fluoro-N,1-dimethyl-N-(6-((1-methyl-1H-pyrazol-4-yl)ethynyl)-2,3-dihydrofuro[2,3-b]pyridin-3-yl)-1H-pyrazolo[4,3-c]quinoline-8-carboxamide], the results for the IC50 in experiment [1] and in experiment [2] were 0.567 µM and 0.0044 µM, respectively. In addition, in experiment [2], the Selectivity came out at 129.

Consider `[2H]C([2H])([2H])N(C(=O)c1cc2c(cc1F)nc(N)c1cnn(C)c12)[C@@H]1COc2cc(C#Cc3cnn(C)c3)ccc21` [Compound 79A, (S)-4-amino-7-fluoro-1-methyl-N-(methyl-D3)-N-(6-((1-methyl-1H-pyrazol-4-yl)ethynyl)-2,3-dihydrobenzofuran-3-yl)-1H-pyrazolo[4,3-c]quinoline-8-carboxamide], for which the IC50 in experiment [1] was 0.304 µM. In experiment [2], the Selectivity is recorded as 152 and the IC50 is 0.002 µM.

As to `Cc1ccc(C#Cc2ccc3c(c2)OC[C@H]3N(C)C(=O)c2cc3c(cc2F)nc(N)c2cnn(C)c23)cn1` [Compound 59A, (S)-4-amino-7-fluoro-N,1-dimethyl-N-(6-((6-methylpyridin-3-yl)ethynyl)-2,3-dihydrobenzofuran-3-yl)-1H-pyrazolo[4,3-c]quinoline-8-carboxamide], the IC50 in experiment [1] turned out to be 0.305 µM. For the same compound, in experiment [2], the Selectivity was 66 and the IC50 is 0.0046 µM.

Take `CN(C(=O)c1cc2c3c(c(N)nc2cc1Cl)COC3)[C@@H]1COc2cc(C#Cc3cccnc3)ccc21` [Compound 70A, (S)-4-amino-7-chloro-N-methyl-N-(6-(pyridin-3-ylethynyl)-2,3-dihydrobenzofuran-3-yl)-1,3-dihydrofuro[3,4-c]quinoline-8-carboxamide]: the IC50 stood at 0.475 µM in experiment [1] and 0.0036 µM in experiment [2]. The Selectivity in experiment [2] came out at 132.

Turning to `CN(C(=O)c1cc2c(cc1F)nc(N)c1cnn(C)c12)C1COc2cc(C#Cc3ccn(C)n3)ccc21` (stereo not drawn) [Compound 21, 4-amino-7-fluoro-N,1-dimethyl-N-(6-((1-methyl-1H-pyrazol-3-yl)ethynyl)-2,3-dihydrobenzofuran-3-yl)-1H-pyrazolo[4,3-c]quinoline-8-carboxamide], the figures for the IC50 in experiment [1] and in experiment [2] were 0.365 µM and 0.007 µM, respectively. For the same compound, the Selectivity in experiment [2] was found to be 52.
